Paper PMC12010006, “Subnanomolar MAS-related G protein-coupled receptor-X2/B2 antagonists with efficacy in human mast cells and disease models” (Signal Transduction and Targeted Therapy, 2025)

Columns and labels:
MRGPRX2 [1] = molecular target: T1, MRGPRX2 (Homo sapiens, UniProt Q96LB1); assay: β-hexosaminidase release, LAD2 cells; type: cell-based; conditions: versus SP (0.3 µM)
T1 sequence (Q96LB1 1-330): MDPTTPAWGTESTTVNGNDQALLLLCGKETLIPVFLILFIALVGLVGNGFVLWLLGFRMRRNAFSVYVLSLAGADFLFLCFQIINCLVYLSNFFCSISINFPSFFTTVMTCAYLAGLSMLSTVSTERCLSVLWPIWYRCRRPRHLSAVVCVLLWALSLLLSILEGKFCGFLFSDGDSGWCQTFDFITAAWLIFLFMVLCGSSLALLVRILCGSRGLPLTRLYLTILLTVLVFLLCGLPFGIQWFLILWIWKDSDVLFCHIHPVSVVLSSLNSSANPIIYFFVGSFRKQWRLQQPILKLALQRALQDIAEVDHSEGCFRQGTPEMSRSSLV
Procedure: PSB-172656 inhibited MRGPRX2-mediated Ca^2+ mobilization in LAD2 cells (see Supplementary Fig. S4).
Fig. 6 PSB-172656 inhibits MRGPRX2-mediated mast cell degranulation. a LAD2 cells were incubated with buffer (control) or various concentrations of MRGPRX2 antagonist PSB-172656, subsequently exposed to substance P (SP, 0.3 µM), and β-hexosaminidase release was measured. […] Data are expressed as means ± SEM of 3 biological replicates. Statistical significance was determined by one-way ANOVA (Tukey’s multiple comparisons), compared to the effect of SP in the absence of PSB-172656 (P-value*** < 0.001). b Potential cytotoxicity of PSB-172656 was determined in 3-[4,5-dimethylthiazol-2-yl]-2,5-diphenyl tetrazolium bromide (MTT) assays performed on LAD2 cells. Cells were treated with different concentrations of PSB-172656 for 24 h at 37 °C, and the optic density value was determined at 570 nm (the viability of untreated cells corresponds to 100% cell viability). […] Mean fluorescence intensity (MFI) levels of e CD107a and f CD63 are depicted. […] Degranulation is characterized by the release of β-hexosaminidase, expressed as a percentage of the total content. h Human skin MCs were incubated with different concentrations of PSB-172656 for 30 min followed by stimulation with CST-14 (1 µM). […]
Degranulation as determined by β-hexosaminidase release was performed as described previously.[66],[67] […]

MRGPRX2 [2] = molecular target: T1, MRGPRX2; assay: TRUPATH Gαi1 dissociation assay, LN229 cells expressing MRGPRX2; type: cell-based; design: expressed in transfected cells; host or cells: LN229 human glioblastoma cells; plasmid pLXSN-MRGPRX2 (Addgene #213960); conditions: 100 nM, preincubation
Procedure: Fig. 3 Biological characterization of PSB-172656. a Selectivity of PSB-172656 (100 nM) for MRGPRX2 over MRGPRX1, MRGPRX3, and MRGPRX4 measured in β-arrestin assays utilizing β-arrestin-CHO cells with recombinant expression of the respective receptor. MRGPRX1 was activated by BAM-22P (8.5 µM),[19] MRGPRX2 was activated by CST-14 (1 µM), MRGPRX3 was activated by PSB-20294 (10 µM), MRGPRX4 was activated by PSB-18061 (2.6 µM).[44] Data represent mean values ± SEM of 3-4 biological replicates, performed in duplicates. […] Data are means ± SEM of 3 biological replicates, in duplicates. Statistical significance was determined by one-way ANOVA (Tukey’s multiple comparison) test (ns P > 0.05). […] Data are means ± SEM of 3 biological replicates, performed in duplicates. e Shift assay to determine inhibition type of PSB-172656 versus CST-14. […] Extrapolated data were not used for analysis but only shown for a comprehensive view. f Schild plot for the effect of PSB-172656 on the concentration-response curves for CST-14. […]
To further investigate PSB-172656 signaling, direct activation of the relevant G protein subunits, Gαq and Gαi1,[32] was studied. This was assessed using G protein dissociation assays and LN229 cells stably overexpressing MRGPRX2 while transiently expressing the investigated G protein (Fig. 3c, d).[47]

IC50 (MRGPRX2 [1]): 5.26 nM
inhibition of CST-14-induced Gαi1 dissociation (MRGPRX2 [2]): completely inhibited
Compound: CCc1c(C(C)C)[nH]c2nc3cc(F)c(F)cc3n2c1=O [Compound 24, 3-ethyl-7,8-difluoro-2-isopropylbenzo[4,5]imidazo [1,2-a] pyrimidin-4(1H)-one]
